Assay results taken from PMC6422312 (Molecular pharmacology, 2010).
“Also recorded” adds a separate entry of the source.

How the values were obtained:
P-gp Q132A mutant [1] = target: T1, P-gp Q132A mutant (Homo sapiens, UniProt P08183, Q132A); test: cell-based
P-gp Q132A mutant [2] = target: T1, P-gp Q132A mutant; details: alanine mutants (Q132A, Q773A) vs wild type, rhodamine123 efflux inhibition
P-gp Q132R mutant [3] = target: T2, P-gp Q132R mutant (Homo sapiens, UniProt P08183, Q132R); details: rhodamine123 efflux inhibition
P-gp Q773R mutant [4] = target: T3, P-gp Q773R mutant (Homo sapiens, UniProt P08183, Q773R); test: cell-based; details: IC50 for rhodamine123 efflux inhibition, HEK-293/EBNA cells
P-gp Q132R mutant [5] = target: T2, P-gp Q132R mutant; test: cell-based
P-gp Q773A mutant [6] = target: T4, P-gp Q773A mutant (Homo sapiens, UniProt P08183, Q773A); test: cell-based
P-gp Q132A/Q773A mutant = P-gp Q132A/Q773A mutant (Homo sapiens, UniProt P08183, Q132A/Q773A); test: cell-based
wild-type P-gp = wild-type P-gp (Homo sapiens, UniProt P08183); test: cell-based
P-gp Q132R mutant [7] = target: T2, P-gp Q132R mutant; test: Rhodamine123 efflux; format: cell-based; details: slope of first-order rate constant vs P-gp surface expression (MRK16)
P-gp Q132A mutant [8] = target: T1, P-gp Q132A mutant; test: Rhodamine123 efflux; format: cell-based; details: Q132A vs wild type
P-gp Q773R mutant [9] = target: T3, P-gp Q773R mutant; test: Rhodamine123 efflux; format: cell-based; details: slope of first-order rate constant vs P-gp surface expression (MRK16)
[10] = target: P-gp Q132R/Q773R double mutant (Homo sapiens, UniProt P08183, Q132R/Q773R); test: Rhodamine123 efflux; format: cell-based; details: protein expressed at the cell surface
P-gp Q773A mutant [11] = target: T4, P-gp Q773A mutant; test: Rhodamine123 efflux; format: cell-based; details: Q773A vs wild type

T1 sequence (P08183 whole entry Q132A): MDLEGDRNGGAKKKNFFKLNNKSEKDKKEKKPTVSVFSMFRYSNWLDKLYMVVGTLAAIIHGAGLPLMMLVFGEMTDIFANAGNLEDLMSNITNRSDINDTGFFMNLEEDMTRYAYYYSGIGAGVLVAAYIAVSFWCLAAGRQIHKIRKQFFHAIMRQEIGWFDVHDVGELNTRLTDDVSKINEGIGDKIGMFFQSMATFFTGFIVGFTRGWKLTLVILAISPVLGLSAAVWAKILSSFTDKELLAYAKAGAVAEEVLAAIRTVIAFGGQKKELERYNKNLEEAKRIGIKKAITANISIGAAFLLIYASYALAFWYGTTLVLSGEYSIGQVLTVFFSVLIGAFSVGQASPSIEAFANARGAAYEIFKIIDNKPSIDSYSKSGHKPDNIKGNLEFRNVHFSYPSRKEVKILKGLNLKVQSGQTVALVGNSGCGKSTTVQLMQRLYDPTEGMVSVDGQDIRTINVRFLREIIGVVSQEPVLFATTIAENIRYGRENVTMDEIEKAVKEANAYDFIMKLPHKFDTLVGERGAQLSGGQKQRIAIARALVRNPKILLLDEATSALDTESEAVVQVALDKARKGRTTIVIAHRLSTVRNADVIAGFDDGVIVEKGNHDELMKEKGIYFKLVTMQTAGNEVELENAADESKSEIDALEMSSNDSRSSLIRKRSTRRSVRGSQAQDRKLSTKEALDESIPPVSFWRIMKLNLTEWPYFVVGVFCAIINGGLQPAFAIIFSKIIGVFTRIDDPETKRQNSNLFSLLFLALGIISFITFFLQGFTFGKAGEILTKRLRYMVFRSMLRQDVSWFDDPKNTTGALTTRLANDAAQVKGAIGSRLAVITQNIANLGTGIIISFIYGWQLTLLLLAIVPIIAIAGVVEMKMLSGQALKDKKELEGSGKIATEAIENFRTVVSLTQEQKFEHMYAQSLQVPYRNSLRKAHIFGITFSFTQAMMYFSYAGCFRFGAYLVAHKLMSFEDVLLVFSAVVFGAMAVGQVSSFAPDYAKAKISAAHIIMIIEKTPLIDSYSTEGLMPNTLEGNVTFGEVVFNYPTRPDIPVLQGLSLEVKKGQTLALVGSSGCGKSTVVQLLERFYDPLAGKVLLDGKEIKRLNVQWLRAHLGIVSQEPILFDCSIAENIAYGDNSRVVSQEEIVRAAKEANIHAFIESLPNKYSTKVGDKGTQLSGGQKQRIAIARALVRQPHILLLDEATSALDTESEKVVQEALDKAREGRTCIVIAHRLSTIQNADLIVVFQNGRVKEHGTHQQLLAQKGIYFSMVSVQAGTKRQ
T4 sequence (P08183 whole entry Q773A): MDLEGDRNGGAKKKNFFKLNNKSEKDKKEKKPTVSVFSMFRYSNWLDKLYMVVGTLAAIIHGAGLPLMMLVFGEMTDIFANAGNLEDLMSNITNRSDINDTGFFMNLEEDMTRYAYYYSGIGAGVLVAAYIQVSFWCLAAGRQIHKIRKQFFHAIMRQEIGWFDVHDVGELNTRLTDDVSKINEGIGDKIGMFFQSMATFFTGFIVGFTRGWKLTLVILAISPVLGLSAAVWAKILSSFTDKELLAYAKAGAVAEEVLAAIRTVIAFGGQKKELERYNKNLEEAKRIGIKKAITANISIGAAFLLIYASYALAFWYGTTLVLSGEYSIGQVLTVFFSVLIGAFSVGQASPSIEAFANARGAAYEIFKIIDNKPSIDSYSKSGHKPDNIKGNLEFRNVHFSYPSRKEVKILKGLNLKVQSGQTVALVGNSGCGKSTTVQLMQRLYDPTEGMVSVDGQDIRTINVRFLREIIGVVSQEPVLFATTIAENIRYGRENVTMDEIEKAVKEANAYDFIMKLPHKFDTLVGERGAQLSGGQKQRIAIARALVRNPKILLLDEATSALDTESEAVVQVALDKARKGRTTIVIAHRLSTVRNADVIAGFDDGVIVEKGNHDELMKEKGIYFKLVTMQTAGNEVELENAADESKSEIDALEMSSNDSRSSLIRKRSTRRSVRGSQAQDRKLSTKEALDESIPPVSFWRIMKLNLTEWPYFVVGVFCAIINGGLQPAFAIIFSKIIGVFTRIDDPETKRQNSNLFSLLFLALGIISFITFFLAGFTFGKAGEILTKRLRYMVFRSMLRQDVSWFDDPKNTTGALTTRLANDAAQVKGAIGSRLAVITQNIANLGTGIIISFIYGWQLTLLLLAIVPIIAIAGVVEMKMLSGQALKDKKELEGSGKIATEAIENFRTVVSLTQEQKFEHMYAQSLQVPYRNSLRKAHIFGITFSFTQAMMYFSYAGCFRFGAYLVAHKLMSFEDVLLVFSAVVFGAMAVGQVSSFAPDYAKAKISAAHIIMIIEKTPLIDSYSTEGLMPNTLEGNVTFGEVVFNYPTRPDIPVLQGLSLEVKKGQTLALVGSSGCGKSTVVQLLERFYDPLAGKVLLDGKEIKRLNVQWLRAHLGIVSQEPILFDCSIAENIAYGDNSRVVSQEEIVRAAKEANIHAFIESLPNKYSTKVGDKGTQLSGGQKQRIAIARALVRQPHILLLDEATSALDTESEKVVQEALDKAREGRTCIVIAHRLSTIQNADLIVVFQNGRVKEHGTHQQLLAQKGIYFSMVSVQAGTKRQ
T2 sequence (P08183 whole entry Q132R): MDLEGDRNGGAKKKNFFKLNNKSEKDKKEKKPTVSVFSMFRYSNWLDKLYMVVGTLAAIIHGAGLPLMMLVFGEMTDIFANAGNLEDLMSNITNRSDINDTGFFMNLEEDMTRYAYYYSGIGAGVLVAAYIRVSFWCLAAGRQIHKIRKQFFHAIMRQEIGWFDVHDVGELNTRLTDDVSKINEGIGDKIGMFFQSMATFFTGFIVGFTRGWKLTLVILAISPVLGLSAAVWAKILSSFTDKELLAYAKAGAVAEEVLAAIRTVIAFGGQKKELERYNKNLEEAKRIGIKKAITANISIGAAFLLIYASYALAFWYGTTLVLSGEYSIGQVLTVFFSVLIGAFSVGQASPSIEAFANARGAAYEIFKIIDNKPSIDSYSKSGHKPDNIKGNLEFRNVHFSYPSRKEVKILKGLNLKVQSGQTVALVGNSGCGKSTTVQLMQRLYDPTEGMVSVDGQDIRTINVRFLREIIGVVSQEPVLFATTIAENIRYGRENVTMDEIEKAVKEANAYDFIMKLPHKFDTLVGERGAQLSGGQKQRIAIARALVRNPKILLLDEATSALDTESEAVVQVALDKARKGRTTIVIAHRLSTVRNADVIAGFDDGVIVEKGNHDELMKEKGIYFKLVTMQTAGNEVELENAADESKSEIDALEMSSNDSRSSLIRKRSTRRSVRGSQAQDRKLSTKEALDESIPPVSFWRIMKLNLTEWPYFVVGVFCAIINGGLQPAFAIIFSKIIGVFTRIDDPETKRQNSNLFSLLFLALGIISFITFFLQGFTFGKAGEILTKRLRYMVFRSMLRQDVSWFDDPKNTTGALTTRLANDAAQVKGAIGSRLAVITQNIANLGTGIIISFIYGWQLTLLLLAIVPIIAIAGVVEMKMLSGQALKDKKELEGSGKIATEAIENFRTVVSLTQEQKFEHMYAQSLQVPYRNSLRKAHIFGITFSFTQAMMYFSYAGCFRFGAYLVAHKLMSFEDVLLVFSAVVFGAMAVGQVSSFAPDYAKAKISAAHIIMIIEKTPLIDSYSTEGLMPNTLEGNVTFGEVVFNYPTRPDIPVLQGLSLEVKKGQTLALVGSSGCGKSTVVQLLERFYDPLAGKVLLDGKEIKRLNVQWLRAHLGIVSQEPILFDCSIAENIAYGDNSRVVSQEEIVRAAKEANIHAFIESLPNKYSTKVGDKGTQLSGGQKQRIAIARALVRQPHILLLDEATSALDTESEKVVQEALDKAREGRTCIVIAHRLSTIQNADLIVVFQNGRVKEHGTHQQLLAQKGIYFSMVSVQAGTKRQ
T3 sequence (P08183 whole entry Q773R): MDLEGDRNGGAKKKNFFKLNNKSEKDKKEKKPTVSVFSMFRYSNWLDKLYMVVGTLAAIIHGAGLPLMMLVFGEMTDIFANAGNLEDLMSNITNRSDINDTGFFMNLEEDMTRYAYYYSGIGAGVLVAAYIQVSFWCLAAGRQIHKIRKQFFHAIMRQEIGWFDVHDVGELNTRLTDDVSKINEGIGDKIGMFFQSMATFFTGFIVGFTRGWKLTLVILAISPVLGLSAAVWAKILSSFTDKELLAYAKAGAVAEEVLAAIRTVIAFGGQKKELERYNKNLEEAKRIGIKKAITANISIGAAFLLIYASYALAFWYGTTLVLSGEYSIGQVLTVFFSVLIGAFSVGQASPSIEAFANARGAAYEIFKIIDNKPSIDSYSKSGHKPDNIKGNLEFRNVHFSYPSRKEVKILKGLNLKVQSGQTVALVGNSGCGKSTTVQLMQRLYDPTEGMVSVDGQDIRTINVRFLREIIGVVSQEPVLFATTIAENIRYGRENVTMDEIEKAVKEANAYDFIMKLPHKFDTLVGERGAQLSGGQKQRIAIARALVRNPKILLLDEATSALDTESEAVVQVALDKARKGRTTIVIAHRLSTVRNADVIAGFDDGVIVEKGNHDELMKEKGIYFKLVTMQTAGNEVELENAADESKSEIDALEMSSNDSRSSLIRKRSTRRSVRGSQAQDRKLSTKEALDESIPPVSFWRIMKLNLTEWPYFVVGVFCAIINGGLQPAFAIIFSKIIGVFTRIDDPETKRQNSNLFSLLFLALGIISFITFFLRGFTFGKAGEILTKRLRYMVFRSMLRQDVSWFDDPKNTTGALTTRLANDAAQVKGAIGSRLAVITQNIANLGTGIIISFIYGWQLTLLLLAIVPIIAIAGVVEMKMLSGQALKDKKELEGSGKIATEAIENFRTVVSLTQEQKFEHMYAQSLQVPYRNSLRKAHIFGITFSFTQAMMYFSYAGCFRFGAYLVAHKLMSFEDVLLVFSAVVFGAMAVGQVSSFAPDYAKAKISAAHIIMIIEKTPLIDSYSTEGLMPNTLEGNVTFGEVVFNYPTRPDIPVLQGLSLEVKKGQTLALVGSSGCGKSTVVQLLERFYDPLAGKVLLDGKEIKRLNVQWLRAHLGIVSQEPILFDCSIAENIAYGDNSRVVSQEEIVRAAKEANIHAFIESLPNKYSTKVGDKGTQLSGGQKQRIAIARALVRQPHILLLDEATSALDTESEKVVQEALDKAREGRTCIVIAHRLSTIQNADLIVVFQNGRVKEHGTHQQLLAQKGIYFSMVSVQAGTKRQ

IC50 (P-gp Q132A mutant [1]) [nM] | Change of IC50 values on mutation of glutamine residues to alanine (P-gp Q132A mutant [2]) | Fold difference in IC50 values between the two Arg mutants (P-gp Q132R mutant [3]; Q132R vs Q773R) [fold] | Fold higher IC50 in Q132R than in wild-type P-gp (P-gp Q132R mutant [3]; Q132R vs wild-type) [fold] | IC50 (P-gp Q773R mutant [4]) [nM] | IC50 (P-gp Q132R mutant [5]) [nM] | IC50 (P-gp Q773A mutant [6]) [nM] | IC50 (P-gp Q132A/Q773A mutant) [nM] | IC50 (wild-type P-gp) [nM] | Rhodamine123 transport rate relative to wild-type (P-gp Q132R mutant [7]) | Rhodamine123 transport rate relative to wild-type (P-gp Q773R mutant [9]) | Rhodamine123 transport activity [10] | SMILES | Effect of mutation on rhodamine123 transport (P-gp Q132A mutant [8]) | Effect of mutation on rhodamine123 transport (P-gp Q773A mutant [11])
100 ± 30 | did not change | 36 | ~7 | 20 ± 10 | 710 ± 460 | 110 ± 50 | 120 ± 10 | 110 ± 60 |  |  |  | O=C(CCc1ccccc1)c1ccccc1OCC(O)CN1CCN(c2ccc(F)cc2)CC1 (stereo not drawn) [GPV31, 1-(2-(3-(4-(4-fluorophenyl)piperazin-1-yl)-2-hydroxypropoxy)phenyl)-3-phenylpropan-1-one] |  | 
2570 ± 690 | did not change |  |  | 2090 ± 900 | 2640 ± 590 | 2400 ± 1470 | 2870 ± 630 | 2600 ± 690 |  |  |  | CCCN(CC(O)COc1ccccc1C(=O)CCc1ccccc1)C(=O)c1ccccc1 (stereo not drawn) [GPV366, N-(2-hydroxy-3-(2-(3-phenylpropanoyl)phenoxy)-propyl)-N-propylbenzamide] |  | 
 |  |  |  |  |  |  |  |  | 52 ± 13 % of wild-type | 24 ± 6 % of wild-type | complete loss of transport activity | COC(=O)c1ccccc1-c1c2ccc(=N)cc-2oc2cc(N)ccc12 [rhodamine123] | did not affect; also recorded: comparable with wild-type | did not affect; also recorded: comparable with wild-type
